Assays:
Format in all cases: in vivo
[1] = system: Erysiphe graminis f. sp. tritici; experiment: Test E: wheat powdery mildew, spray the day before inoculation (disease rating, 100 = 100% disease control); settings: sprayed the day before inoculation, 7 days at 20° C.
How it was run: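 Wheat seedlings sprayed to run-off with compound suspended in acetone/water 50/50 with 250 ppm Trem 014 (200 ppm equivalent to 500 g/ha); inoculated next day with Erysiphe graminis f. sp. tritici spore dust. Kept 7 days at 20° C, then rated 0–100% disease control versus controls.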

Phytophthora infestans [2] = experiment: whole plant or invertebrate; settings: tomato late blight, sprayed 17 h after inoculation
Phytophthora infestans [3] = experiment: whole plant or invertebrate; settings: tomato late blight, sprayed the day before inoculation
Plasmopara viticola = experiment: Test B: grape downy mildew, spray 24 h after inoculation (disease rating, 100 = 100% disease control); settings: sprayed 24 h after inoculation
How it was run: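 Grape seedlings were inoculated with Plasmopara viticola and held 24 h saturated at 20 °C, then sprayed to run-off with compound suspension (acetone/water with 250 ppm Trem 014; 200 ppm ≈ 500 g/ha). After 5 days at 20 °C and 24 h saturation, disease was rated from 0 to 100% control versus untreated.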

[4] = unmarked compounds (no asterisk, not 40 or 10 ppm)

Compound | Test E disease rating (100 = 100% disease control, 0 = no disease control) [1, 4] | Test D disease rating (100 = 100% disease control, 0 = no disease control) (Phytophthora infestans [2]; [4]) | Test C disease rating (100 = 100% disease control, 0 = no disease control) (Phytophthora infestans [3]; [4]) | Test B disease rating (100 = 100% disease control, 0 = no disease control) (Plasmopara viticola; [4]) | Test E disease rating (100 = 100% disease control, 0 = no disease control) ([1]; tested at 10 ppm (**)) | Test D disease rating (100 = 100% disease control, 0 = no disease control) (Phytophthora infestans [2]; tested at 10 ppm (**)) | Test C disease rating (100 = 100% disease control, 0 = no disease control) (Phytophthora infestans [3]; tested at 10 ppm (**)) | Test B disease rating (100 = 100% disease control, 0 = no disease control) (Plasmopara viticola; tested at 10 ppm (**))
C[C@@H](NC(=O)c1csc(C2CCN(C(=O)Cc3cccc(Br)c3)CC2)n1)c1cccc(C(F)(F)F)c1 [compound 277] | 0 | 0 | 9 | 15 | – | – | – | –
C[C@@H](NC(=O)c1csc(C2CCN(C(=O)Cc3cccc(Br)c3)CC2)n1)c1ccc(Cl)cc1 [compound 280] | 0 | 0 | 24 | 0 | – | – | – | –
COc1cccc([C@@H](C)NC(=O)c2csc(C3CCN(C(=O)Cc4cccc(Br)c4)CC3)n2)c1 [compound 281] | 0 | 0 | 0 | 15 | – | – | – | –
C=CCN(C(=O)c1csc(C2CCN(C(=O)Cc3cc(C)ccc3C)CC2)n1)[C@H](C)c1ccccc1 [compound 284] | 0 | 0 | 21 | 10 | – | – | – | –
Cc1ccc(C)c(CC(=O)N2CCC(c3nc(C(=O)N(C(C)C)[C@H](C)c4ccccc4)cs3)CC2)c1 [compound 285] | 0 | 0 | 25 | 10 | – | – | – | –
CCN(C(=O)c1csc(C2CCN(C(=O)Cc3cc(C)ccc3C)CC2)n1)[C@H](C)c1ccccc1 [compound 286] | 52 | 0 | 23 | 39 | – | – | – | –
CCCN(C(=O)c1csc(C2CCN(C(=O)Cc3cc(C)ccc3C)CC2)n1)[C@H](C)c1ccccc1 [compound 287] | 0 | 0 | 50 | 0 | – | – | – | –
Cc1cc(C(F)(F)F)nn1CC(=O)N1CCC(c2nc(C(=O)N3CCCC3c3ccc(Cl)cc3)cs2)CC1 (stereo not drawn) [compound 290] | 0 | 26 | 90 | 0 | – | – | – | –
Cc1cc(C(F)(F)F)nn1CC(=O)N1C(C)CN(c2nc(C(=O)N(C)[C@@H]3CCCc4ccccc43)cs2)CC1C (stereo partly drawn) [compound 292] | 0 | 93 | 100 | 71 | – | – | – | –
Cc1cc(C(F)(F)F)nn1CC(=O)N1CCN(c2nc(C(=O)N(C)[C@@H]3CCCc4ccccc43)cs2)CC1C (stereo partly drawn) [compound 293] | 0 | 99 | 100 | 100 | – | – | – | –
Cc1cc(C(F)(F)F)nn1CC(=O)N1CCC(c2nc(C(=O)NC3CCCc4ccccc43)cs2)CC1 (stereo not drawn) [compound 294] | 0 | 96 | 100 | 99 | – | – | – | –
Cc1cc(C(F)(F)F)nn1CC(=O)N1CCC(c2nc(C(=O)N3Cc4ccccc4C3)cs2)CC1 [compound 295] | 0 | 39 | 95 | 39 | – | – | – | –
Cc1cc(C(F)(F)F)nn1CC(=O)N1CCC(c2nc(C(=O)N3CCc4ccccc4C3)cs2)CC1 [compound 296] | 0 | 93 | 100 | 82 | – | – | – | –
COc1cc2c(cc1OC)CN(C(=O)c1csc(C3CCN(C(=O)Cn4nc(C(F)(F)F)cc4C)CC3)n1)CC2 [compound 297] | 0 | 33 | 63 | 39 | – | – | – | –
Cc1cc(C(F)(F)F)nn1CC(=O)N1CCC(c2nc(C(=O)N3Cc4ccccc4C3C)cs2)CC1 (stereo not drawn) [compound 298] | – | – | – | – | 0 | 0 | 80 | 57
Cc1cc(C(F)(F)F)nn1CC(=O)N1CCC(c2nc(C(=O)N3CCC4CCCCC4C3)cs2)CC1 (stereo not drawn) [compound 299] | 0 | 96 | 99 | 83 | – | – | – | –
Cc1cc(C(F)(F)F)nn1CC(=O)N1CCC(c2nc(C(=O)N3CCCC4CCCCC43)cs2)CC1 (stereo not drawn) [compound 300] | 0 | 58 | 97 | 62 | – | – | – | –
Cc1cc(C(F)(F)F)nn1CC(=O)N1CCC(c2nc(C(=O)N3CCCCC3)cs2)CC1 [compound 307] | 0 | 26 | 100 | 79 | – | – | – | –
Cc1cc(C(F)(F)F)nn1CC(=O)N1CCC(c2nc(C(=O)N3CCC(C)CC3)cs2)CC1 [compound 308] | 0 | 93 | 100 | 98 | – | – | – | –
Cc1cc(C(F)(F)F)nn1CC(=O)N1CCC(c2nc(C(=O)N3CCC(C)(C)CC3)cs2)CC1 [compound 309] | 0 | 83 | 100 | 96 | – | – | – | –
Cc1cc(C(F)(F)F)nn1CC(=O)N1CCC(c2nc(C(=O)N3CC=CCC3)cs2)CC1 [compound 310] | 0 | 9 | 73 | 47 | – | – | – | –

— patent publication US8586611B2 (priority 2005, dated 2013)
